By IC50 is commonly meant the midpoint of a concentration-inhibition curve. Usually AC50 stands for the concentration giving half of the maximal activity seen. The EC50 is the concentration giving half of the maximal effect.

Structures are written as SMILES. Active and inactive are the calls of the source.

For assay [1], the target named is Tyrosyl-DNA phosphodiesterase 2 (Homo sapiens, UniProt O95551). Kind of assay: human TDP2 enzyme inhibitors, dose response, biochemical, epi absorbance, IC50 (AID 743297).
Tyrosyl-DNA phosphodiesterase 2, sequence (O95551 whole entry): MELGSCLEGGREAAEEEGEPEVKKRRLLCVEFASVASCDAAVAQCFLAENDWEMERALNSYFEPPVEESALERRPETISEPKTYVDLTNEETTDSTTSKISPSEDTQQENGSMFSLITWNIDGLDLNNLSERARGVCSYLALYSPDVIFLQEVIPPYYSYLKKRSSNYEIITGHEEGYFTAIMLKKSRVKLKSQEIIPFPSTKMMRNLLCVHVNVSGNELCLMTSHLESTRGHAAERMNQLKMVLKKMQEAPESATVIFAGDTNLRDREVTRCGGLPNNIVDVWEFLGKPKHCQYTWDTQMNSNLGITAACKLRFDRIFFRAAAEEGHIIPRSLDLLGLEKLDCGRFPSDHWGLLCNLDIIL
In another assay the target is T1, Caspase-3 (Homo sapiens, UniProt P42574).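 Note: Dose-response selectivity test against caspase-3 for candidate inhibitors of sentrin-specific proteases (SENPs).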
T1 sequence (P42574 whole entry): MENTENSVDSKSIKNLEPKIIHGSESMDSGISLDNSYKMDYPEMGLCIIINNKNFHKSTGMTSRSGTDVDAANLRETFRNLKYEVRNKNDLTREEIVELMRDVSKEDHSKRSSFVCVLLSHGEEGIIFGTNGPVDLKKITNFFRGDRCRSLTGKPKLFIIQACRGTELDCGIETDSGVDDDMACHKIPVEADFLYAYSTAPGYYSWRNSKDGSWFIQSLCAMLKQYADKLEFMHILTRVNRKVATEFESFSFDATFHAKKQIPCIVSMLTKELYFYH
The assay is classed as functional.

In assay [2] the target is T2, Sentrin-specific protease 6 (Homo sapiens, UniProt Q9GZR1).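 Note: Luminescence-based dose-response confirmatory assay of SENP6 inhibition, following up an ultra-high-throughput screen.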
T2 sequence (Q9GZR1 whole entry): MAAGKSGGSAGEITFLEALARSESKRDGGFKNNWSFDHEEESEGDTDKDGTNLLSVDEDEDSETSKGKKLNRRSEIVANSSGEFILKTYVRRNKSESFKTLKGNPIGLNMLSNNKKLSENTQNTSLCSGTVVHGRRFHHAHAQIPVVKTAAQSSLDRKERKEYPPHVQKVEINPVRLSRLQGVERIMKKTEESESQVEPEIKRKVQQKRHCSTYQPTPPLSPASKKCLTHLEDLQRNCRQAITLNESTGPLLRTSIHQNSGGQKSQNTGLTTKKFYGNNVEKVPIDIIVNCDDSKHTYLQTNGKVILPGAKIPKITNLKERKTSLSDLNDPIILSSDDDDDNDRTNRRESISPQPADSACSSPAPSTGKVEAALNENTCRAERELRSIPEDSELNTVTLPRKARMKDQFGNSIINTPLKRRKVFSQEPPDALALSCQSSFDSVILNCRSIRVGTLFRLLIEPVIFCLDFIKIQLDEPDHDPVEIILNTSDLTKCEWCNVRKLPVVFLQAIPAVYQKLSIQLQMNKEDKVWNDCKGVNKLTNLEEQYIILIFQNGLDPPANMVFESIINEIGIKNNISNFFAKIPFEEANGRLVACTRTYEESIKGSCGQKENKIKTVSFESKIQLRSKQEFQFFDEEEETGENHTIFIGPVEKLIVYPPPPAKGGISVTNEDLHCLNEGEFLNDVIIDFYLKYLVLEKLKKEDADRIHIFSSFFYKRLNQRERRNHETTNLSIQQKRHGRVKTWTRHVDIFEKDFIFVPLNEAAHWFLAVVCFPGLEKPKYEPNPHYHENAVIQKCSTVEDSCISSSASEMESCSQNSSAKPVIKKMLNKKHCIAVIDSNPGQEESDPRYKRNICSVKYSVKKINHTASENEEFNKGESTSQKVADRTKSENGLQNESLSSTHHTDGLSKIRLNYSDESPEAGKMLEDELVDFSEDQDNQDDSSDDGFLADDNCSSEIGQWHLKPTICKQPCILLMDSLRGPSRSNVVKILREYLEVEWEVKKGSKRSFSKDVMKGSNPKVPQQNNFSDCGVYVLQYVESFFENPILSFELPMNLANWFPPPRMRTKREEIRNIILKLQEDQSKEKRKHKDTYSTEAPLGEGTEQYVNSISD
The assay is classed as functional.

For assay [3], the target named is T3, Sentrin-specific protease 8 (Homo sapiens, UniProt Q96LD8).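 Note: luminescence read-out of SENP8 inhibition, dose-response confirmation following an ultra-high-throughput screen.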
T3 sequence (Q96LD8 whole entry): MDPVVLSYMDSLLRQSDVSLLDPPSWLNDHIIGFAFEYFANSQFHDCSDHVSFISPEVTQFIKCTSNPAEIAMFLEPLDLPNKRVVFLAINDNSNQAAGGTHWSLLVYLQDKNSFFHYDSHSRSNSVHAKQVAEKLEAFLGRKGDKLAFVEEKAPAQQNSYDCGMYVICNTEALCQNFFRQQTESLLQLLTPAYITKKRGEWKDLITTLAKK
The assay is classed as functional.

In assay [4] the target is T4, Sentrin-specific protease 7 (Homo sapiens, UniProt Q9BQF6).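 Note: Luminescence-based dose-response confirmation of ultra-high-throughput screening hits, measuring inhibition of SENP7.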
T4 sequence (Q9BQF6 whole entry): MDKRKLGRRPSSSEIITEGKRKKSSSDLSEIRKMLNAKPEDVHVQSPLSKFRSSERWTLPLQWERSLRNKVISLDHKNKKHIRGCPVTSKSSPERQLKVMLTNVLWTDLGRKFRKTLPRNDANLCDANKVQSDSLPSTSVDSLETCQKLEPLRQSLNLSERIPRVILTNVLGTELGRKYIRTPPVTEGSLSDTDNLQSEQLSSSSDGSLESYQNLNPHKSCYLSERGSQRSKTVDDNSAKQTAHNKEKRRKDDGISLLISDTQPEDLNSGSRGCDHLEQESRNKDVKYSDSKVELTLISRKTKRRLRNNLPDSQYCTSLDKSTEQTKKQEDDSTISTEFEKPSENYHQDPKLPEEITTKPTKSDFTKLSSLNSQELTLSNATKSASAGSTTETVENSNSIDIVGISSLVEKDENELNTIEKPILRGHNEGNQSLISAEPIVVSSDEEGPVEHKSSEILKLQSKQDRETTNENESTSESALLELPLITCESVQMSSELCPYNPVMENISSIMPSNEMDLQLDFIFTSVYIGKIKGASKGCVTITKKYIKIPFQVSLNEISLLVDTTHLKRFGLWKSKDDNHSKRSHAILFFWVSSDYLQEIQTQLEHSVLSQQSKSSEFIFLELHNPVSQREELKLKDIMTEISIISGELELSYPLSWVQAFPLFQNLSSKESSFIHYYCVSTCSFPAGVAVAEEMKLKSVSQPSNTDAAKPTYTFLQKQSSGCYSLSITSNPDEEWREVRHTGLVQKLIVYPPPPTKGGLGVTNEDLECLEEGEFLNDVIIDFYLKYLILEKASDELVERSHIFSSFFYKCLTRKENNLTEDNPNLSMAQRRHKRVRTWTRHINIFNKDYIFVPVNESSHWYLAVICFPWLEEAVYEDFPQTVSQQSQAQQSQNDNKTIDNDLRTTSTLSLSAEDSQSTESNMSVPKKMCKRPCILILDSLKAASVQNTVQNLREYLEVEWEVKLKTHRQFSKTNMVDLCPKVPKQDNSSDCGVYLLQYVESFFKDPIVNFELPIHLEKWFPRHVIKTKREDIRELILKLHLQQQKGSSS
The assay is classed as functional.

The next assay relates to INS1. Kind of assay: beta cell apoptosis inhibitors, cytokine rescue, dose response, luminescence, retest (AID 449756).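 Note: cell death triggered by IL-1 beta plus TNF-alpha plus IFN-gamma mixture; protective hits raise ATP signal compared with cytokine alone wells.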 Conditions: Rattus norvegicus. In kind it is functional, cell-based.
Assay [5] can be described thus: inhibitors of firefly luciferase expression or activity, dose response, H4 neuroglioma cells, luminescence (AID 1990). The assay is classed as functional, cell-based.
Assay [6] can be described thus: cytotoxicity toward NIH3T3 fibroblasts, dose response, counter-screen, cell-based, ATP luminescence, mouse fibroblasts (AID 2010).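 Note: cells exposed to compound for about 90 hours before reading.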 In kind it is functional.
In a further assay the target is Trypsin (Sus scrofa, UniProt P00761). The experiment in a line: porcine trypsin inhibitors, dose response, selectivity assay for Rce1 protease inhibitor project, biochemical, quenched peptide fluorescence, cherry-pick (AID 488789).
Trypsin, sequence (P00761 whole entry): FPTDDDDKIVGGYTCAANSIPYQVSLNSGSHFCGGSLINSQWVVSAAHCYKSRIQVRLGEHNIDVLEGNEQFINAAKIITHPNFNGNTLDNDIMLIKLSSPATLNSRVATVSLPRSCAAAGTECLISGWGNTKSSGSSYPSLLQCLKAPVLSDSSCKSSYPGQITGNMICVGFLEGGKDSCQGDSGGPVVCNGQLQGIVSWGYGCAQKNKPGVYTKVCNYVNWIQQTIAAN

Consider `CCc1ccc(S(=O)(=O)/N=C2\C=C(Nc3cccc(C(=O)O)c3)C(=O)c3ccccc32)cc1`, for which the IC50 in [1] was 2.2 µM (active).

Regarding `COc1cc2c(cc1OC)-c1c(OC)c(OC)cc3c1C(C2)N(C)CC3` (stereo not given), the IC50 on Caspase-3 was 0.907 µM (active); in [2], 1.86 µM (active); in assay [1], 4.6 µM (active); in assay [3] it was 5.47 µM (active); in assay [4], 4.63 µM (active).

Regarding `COc1cc(OC)c(NC2=CC(=O)C(=O)c3ccccc32)cc1Cl`, the half-maximal activity concentration (AC50) in the assay with INS1 is 3.57 µM (active). The IC50 on Caspase-3 is 12.2 µM (active); in [2] it was 2.25 µM (active); in assay [3] it was 3.62 µM (active); in [4], 4.56 µM (active). Besides, the EC50 in assay [5] is 0.412 µM (active).

Regarding `CCCCCCCCCCOC(=O)Cn1c(COc2cccc(OC)c2)[n+](C)c2ccccc21`, in assay [6], the EC50 is > 60 µM (not active). For the same compound, the AC50 in the assay on INS1 was 2.94 µM (active); at Trypsin, 5.16 µM (active).

These data come from ChEMBL document CHEMBL1201862, “PubChem BioAssay data set” (2004).
